Results reported in patent publication US11299461B2 (priority 2018, dated 2022).

Target: LF 263-C catalytic domain (anthrax lethal factor) (Bacillus anthracis, UniProt P15917)
Assay: biochemical

Sequence of LF 263-C catalytic domain (anthrax lethal factor) (P15917 296-809 limits assumed): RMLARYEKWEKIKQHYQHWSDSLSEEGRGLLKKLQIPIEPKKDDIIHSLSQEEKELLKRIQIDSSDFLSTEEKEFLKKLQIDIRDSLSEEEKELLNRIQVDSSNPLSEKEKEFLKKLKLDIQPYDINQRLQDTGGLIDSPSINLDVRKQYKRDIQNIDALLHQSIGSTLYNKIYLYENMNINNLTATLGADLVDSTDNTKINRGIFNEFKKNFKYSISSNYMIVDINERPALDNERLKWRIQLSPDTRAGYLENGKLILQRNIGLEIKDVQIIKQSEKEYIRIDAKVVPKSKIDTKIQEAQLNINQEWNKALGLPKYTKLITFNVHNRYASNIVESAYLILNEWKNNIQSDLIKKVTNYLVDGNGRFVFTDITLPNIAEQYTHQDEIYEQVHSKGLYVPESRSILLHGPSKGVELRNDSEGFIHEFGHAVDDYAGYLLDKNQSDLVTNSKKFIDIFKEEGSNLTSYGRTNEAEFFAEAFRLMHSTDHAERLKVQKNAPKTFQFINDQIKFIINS

Q: How did the Ki turn out when `CC[C@@H](NCCCC[C@@H](Cc1cc(C)c(F)c(C)c1)C(=O)NO)c1ccc(F)cn1` [Compound 28, (S)-2-(4-fluoro-3,5-dimethylbenzyl)-6-(((R)-1-(5-fluoropyridin-2-yl)propyl)amino)-N-hydroxyhexanamide] was run?
A: 0.08 nM

Q: With `Cc1cc(C[C@H](CCCCN[C@H](C)c2ccc(F)cn2)C(=O)NO)cc(C)c1F` [Compound 10, (S)-2-(4-fluoro-3,5-dimethylbenzyl)-6-(((R)-1-(5-fluoropyridin-2-yl)ethyl)amino)-N-hydroxyhexanamide] as the compound, how does the Ki read?
A: 0.15 nM

Q: How did the Ki turn out when `Cc1cc(N[C@H](CCCCN[C@H](CO)c2ccc(F)cn2)C(=O)NO)cc(C)c1F` [Compound 2, (R)-2-((4-fluoro-3,5-dimethylphenyl)amino)-6-(((S)-1-(5-fluoropyridin-2-yl)-2-hydroxyethyl)amino)-N-hydroxyhexanamide] was run?
A: 0.14 nM

Q: For `Cc1cc(C[C@H](CCCCNC(C)(C)c2ccc(F)cn2)C(=O)NO)cc(C)c1F` [Compound 20, (S)-2-(4-fluoro-3,5-dimethylbenzyl)-6-((2-(5-fluoropyridin-2-yl)propan-2-yl)amino)-N-hydroxyhexanamide], which Ki is on record?
A: 0.19 nM

Q: For `Cc1cc(C[C@H](CCCCN[C@H](C)c2ccc(Cl)cn2)C(=O)NO)cc(C)c1F` [Compound 27, (S)-6-(((R)-1-(5-chloropyridin-2-yl)ethyl)amino)-2-(4-fluoro-3,5-dimethylbenzyl)-N-hydroxyhexanamide], which Ki is on record?
A: 0.08 nM

Q: Which Ki does the source give for `Cc1cc(C[C@H](CCCCN[C@@H](c2ccc(F)cn2)C(C)C)C(=O)NO)cc(C)c1F` [Compound 21, (S)-2-(4-fluoro-3,5-dimethylbenzyl)-6-(((R)-1-(5-fluoropyridin-2-yl)-2-methylpropyl)amino)-N-hydroxyhexanamide] here?
A: 0.11 nM

Q: For `CN(CCCC[C@@H](Cc1cc(Cl)c(F)c(Cl)c1)C(=O)NO)Cc1ccc(F)cn1` [Compound 33, (S)-2-(3,5-dichloro-4-fluorobenzyl)-6-(((5-fluoropyridin-2-yl)methyl)(methyl)amino)-N-hydroxyhexanamide], which Ki is on record?
A: 1.6 nM

Q: How did the Ki turn out when `Cc1cc(C[C@H](CCCCN[C@@H](c2ccc(Cl)cn2)C(C)C)C(=O)NO)cc(C)c1F` [Compound 22, (S)-6-(((R)-1-(5-chloropyridin-2-yl)-2-methylpropyl)amino)-2-(4-fluoro-3,5-dimethylbenzyl)-N-hydroxyhexanamide] was run?
A: 0.17 nM

Q: With `Cc1cc(N[C@H](CCCCN[C@H](C)c2ccc(Cl)cn2)C(=O)NO)cc(C)c1F` [Compound 7, (R)-6-(((R)-1-(5-chloropyridin-2-yl)ethyl)amino)-2-((4-fluoro-3,5-dimethylphenyl)amino)-N-hydroxyhexanamide] as the compound, how does the Ki read?
A: 0.35 nM

Q: `Cc1cc(C[C@H](CCCCN(C)Cc2ccc(F)cn2)C(=O)NO)cc(Cl)c1F` [Compound 29, (S)-2-(3-chloro-4-fluoro-5-methylbenzyl)-6-(((5-fluoropyridin-2-yl)methyl)(methyl)amino)-N-hydroxyhexanamide] was tested. Which Ki did it give?
A: 1.1 nM

Q: With `COc1ccc([C@H](NCCCC[C@@H](C[C@@H](OC)c2ccc(F)cc2)C(=O)NO)C(C)C)nc1` [Compound 49, (S)-2-((R)-2-(4-fluorophenyl)-2-methoxyethyl)-N-hydroxy-6-(((R)-1-(5-methoxypyridin-2-yl)-2-methylpropyl)amino)hexanamide] as the compound, how does the Ki read?
A: 2.7 nM

Q: With `CO[C@H](C[C@H](CCCCN(C)Cc1cc(C)ccn1)C(=O)NO)c1ccc(F)cc1` [Compound 46, (S)-2-((R)-2-(4-fluorophenyl)-2-methoxyethyl)-N-hydroxy-6-(methyl((4-methylpyridin-2-yl)methyl)amino)hexanamide] as the compound, how does the Ki read?
A: 14 nM

Q: Which Ki does the source give for `CO[C@H](C[C@H](CCCCN(C)Cc1cccc(C)n1)C(=O)NO)c1ccc(F)cc1` [Compound 45, (S)-2-((R)-2-(4-fluorophenyl)-2-methoxyethyl)-N-hydroxy-6-(methyl((6-methylpyridin-2-yl)methyl)amino)hexanamide] here?
A: 15.8 nM

Q: For `Cc1cc(C[C@H](CCCCN[C@@H](c2ncc(F)cc2F)C(C)C)C(=O)NO)cc(C)c1F` [Compound 23, (S)-6-(((R)-1-(3,5-difluoropyridin-2-yl)-2-methylpropyl)amino)-2-(4-fluoro-3,5-dimethylbenzyl)-N-hydroxyhexanamide], which Ki is on record?
A: 0.25 nM

Q: Which Ki does the source give for `CCN(CCCC[C@@H](Cc1cc(C)c(F)c(C)c1)C(=O)NO)[C@H](C)c1ccc(OC)cn1` [Compound 17, (S)-6-(ethyl((R)-1-(5-methoxypyridin-2-yl)ethyl)amino)-2-(4-fluoro-3,5-dimethylbenzyl)-N-hydroxyhexanamide] here?
A: 4.5 nM

Q: How did the Ki turn out when `CCN(CCCC[C@@H](C[C@@H](OC)c1ccc(F)cc1)C(=O)NO)Cc1ccc(Cl)cn1` [Compound 40, (S)-6-(((5-chloropyridin-2-yl)methyl)(ethyl)amino)-2-((R)-2-(4-fluorophenyl)-2-methoxyethyl)-N-hydroxyhexanamide] was run?
A: 4.5 nM

Q: How did the Ki turn out when `CCN(CCCC[C@@H](C[C@@H](OC)c1ccc(F)c(C)c1)C(=O)NO)Cc1ccc(Cl)cn1` [Compound 57, (S)-6-(((5-chloropyridin-2-yl)methyl)(ethyl)amino)-2-((R)-2-(4-fluoro-3-methylphenyl)-2-methoxyethyl)-N-hydroxyhexanamide] was run?
A: 2.8 nM

Q: How did the Ki turn out when `CC(C)[C@@H](NCCCC[C@@H](Cc1cc(Cl)c(F)c(Cl)c1)C(=O)NO)c1ccc(F)cn1` [Compound 34, (S)-2-(3,5-dichloro-4-fluorobenzyl)-6-(((R)-1-(5-fluoropyridin-2-yl)-2-methylpropyl)amino)-N-hydroxyhexanamide] was run?
A: 0.6 nM

Q: Which Ki does the source give for `CC(C)[C@@H](NCCCC[C@@H](Cc1cc(Cl)c(F)c(Cl)c1)C(=O)NO)c1ccc(Cl)cn1` [Compound 35, (S)-6-(((R)-1-(5-chloropyridin-2-yl)-2-methylpropyl)amino)-2-(3,5-dichloro-4-fluorobenzyl)-N-hydroxyhexanamide] here?
A: 0.42 nM

Q: With `CO[C@H](C[C@H](CCCCN(C)Cc1ccc(Cl)cn1)C(=O)NO)c1ccc(F)cc1` [Compound 42, (S)-6-(((5-chloropyridin-2-yl)methyl)(methyl)amino)-2-((R)-2-(4-fluorophenyl)-2-methoxyethyl)-N-hydroxyhexanamide] as the compound, how does the Ki read?
A: 3 nM

Q: With `CO[C@H](C[C@H](CCCCN(CCO)Cc1ncc(F)cc1Cl)C(=O)NO)c1ccc(F)cc1` [Compound 47, (S)-6-(((3-chloro-5-fluoropyridin-2-yl)methyl)(2-hydroxyethyl)amino)-2-((R)-2-(4-fluorophenyl)-2-methoxyethyl)-N-hydroxyhexanamide] as the compound, how does the Ki read?
A: 53.5 nM
